The source of these data is ChEMBL document CHEMBL1147984, “Discovery, synthesis, and in vivo activity of a new class of pyrazoloquinazolines as selective inhibitors of aurora B kinase” (J Med Chem, 2007).

≈ marks a conversion by molar mass, not a printed value. Where “and” joins values, the source holds several entries; their conditions need not be identical. Equal entries are not always repeated.

For series [1], the target named is T1, Aurora kinase A (Homo sapiens, UniProt O14965).
T1 sequence (O14965 whole entry): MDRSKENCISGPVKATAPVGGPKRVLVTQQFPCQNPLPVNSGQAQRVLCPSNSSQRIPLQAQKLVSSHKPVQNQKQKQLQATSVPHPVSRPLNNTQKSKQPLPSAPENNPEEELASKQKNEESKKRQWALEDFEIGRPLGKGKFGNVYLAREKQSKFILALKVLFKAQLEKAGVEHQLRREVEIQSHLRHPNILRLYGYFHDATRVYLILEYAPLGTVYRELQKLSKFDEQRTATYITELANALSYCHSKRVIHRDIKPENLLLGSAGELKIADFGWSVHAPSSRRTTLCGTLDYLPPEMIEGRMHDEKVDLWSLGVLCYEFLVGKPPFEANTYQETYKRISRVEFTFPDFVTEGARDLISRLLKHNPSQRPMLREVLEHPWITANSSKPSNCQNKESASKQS
Description: (§1) Inhibition of human recombinant Aurora A

In series [2] the target is T1, Aurora kinase A. This is another data set of the same source.
Description: as §1
In a further series the target is Aurora kinase B (Homo sapiens, UniProt Q96GD4).
Series [3] in a line: aqueous solubility. The class given is physicochemical. The conditions noted are these: read-out: S.
For series [4] the following is noted: rat.
A short description of another series: physchem. Particulars: octanol/water, pH 7.4.
A short description of the next series: in vivo. The conditions noted are these: rat.
A short description of series [5]: protein binding. In kind it is ADME. The conditions noted are these: read-out: PB (converted).
A short description of series [6]: solubility (tris buffer pH9). In kind it is physicochemical. Particulars: pH 9, read-out: S.
The nature of series [7]: P450 isoforms 3A4. The class given is ADME.

Sequence of Aurora kinase B (Q96GD4 whole entry): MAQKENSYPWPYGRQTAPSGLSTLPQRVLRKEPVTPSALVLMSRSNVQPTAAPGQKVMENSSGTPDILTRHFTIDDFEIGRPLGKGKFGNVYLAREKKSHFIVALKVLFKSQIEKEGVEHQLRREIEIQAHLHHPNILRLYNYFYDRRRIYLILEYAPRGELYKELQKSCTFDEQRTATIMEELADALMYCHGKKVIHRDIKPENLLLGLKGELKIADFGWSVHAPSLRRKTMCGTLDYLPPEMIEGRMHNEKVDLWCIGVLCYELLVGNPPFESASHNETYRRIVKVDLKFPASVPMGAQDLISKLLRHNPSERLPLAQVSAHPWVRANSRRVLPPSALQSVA
Description for Aurora kinase B: Inhibition of human recombinant Aurora B
Description for SW-620: inhibition of histone-H3 phosphorylation following 24 hr incubation in SW620 tumor cells

`COc1cc2c(Nc3cc(CC(=O)Nc4cccc([N+](=O)[O-])c4)[nH]n3)ncnc2cc1OCCCN1CCC(CO)CC1`: the Ki (as a rule, the equilibrium dissociation constant of an inhibitor or competing ligand from its target) on Aurora kinase A [1] was 890 nM; at Aurora kinase A [2], 39 nM; at SW-620, more than 10000 nM.

Take `COc1cc2c(Nc3cc(CC(=O)Nc4cccc(F)c4F)[nH]n3)ncnc2cc1OCCCN1CCC(CCO)CC1`: the Ki on Aurora kinase A [1] was 280 nM; at SW-620 it was 130 nM; on Aurora kinase B, less than 1 nM.

In the case of `COc1cc2c(Nc3cc(CC(=O)Nc4ccccc4)[nH]n3)ncnc2cc1OCCCN1CCC(CO)CC1`, the Ki is 1600 nM and 1200 nM at Aurora kinase A [1]; 18 nM on Aurora kinase A [2].

Take `CCCN(CCO)CCCOc1cc2ncnc(Nc3cc(CC(=O)Nc4cccc(F)c4)[nH]n3)c2cc1OC`: the results for the Ki on Aurora kinase A [1], on SW-620 and at Aurora kinase B were 220 nM, 290 nM and 2 nM, respectively.

For the molecule `COc1cc2c(Nc3ncc(CC(=O)Nc4cccc(F)c4)s3)ncnc2cc1OCCCN1CCC(COP(=O)(O)O)CC1`, the solubility in series [3] is more than 10 mg/mL.

In series [4], `COc1cc2c(Nc3cc(CC(=O)Nc4cccc(F)c4F)[nH]n3)ncnc2cc1OCCCN1CCC[C@@H]1CO` gave an AB of 85%. The Ki turned out to be 94 nM at Aurora kinase A [1], 42 nM on SW-620 and 1 nM at Aurora kinase B. Further, the logD (in general, lipophilicity at a set pH, counting ionised and neutral species) in the series “physchem” came out at 2. Moreover, the clearance (commonly the rate of elimination divided by the concentration) in the series “in vivo” worked out at 63 mL/min/kg. Moreover, the fraction unbound in series [5] is 0.15.

On to `COc1cc2c(Nc3cc(CC(=O)Nc4cccc(F)c4F)[nH]n3)ncnc2cc1OCCCN1CCN(CCO)CC1`, for which the Ki was 55 nM at Aurora kinase A [1], 71 nM on SW-620 and less than 1 nM on Aurora kinase B.

Turning to `COc1cc2c(Nc3cc(CC(=O)Nc4cc(F)cc(F)c4)[nH]n3)ncnc2cc1OCCCN1CCC(CO)CC1`, at SW-620, the Ki was determined as 370 nM.

As to `CCN(CCO)CCCOc1ccc2c(Nc3cc(CC(=O)Nc4cccc(F)c4F)[nH]n3)ncnc2c1`, the Ki was 160 nM at Aurora kinase A [1], 7 nM at SW-620 and less than 1 nM on Aurora kinase B.

Turning to `COc1cc2c(Nc3cc(CC(=O)Nc4ccccc4F)[nH]n3)ncnc2cc1OCCCN1CCC(CO)CC1`, the Ki is 1400 nM and 470 nM at Aurora kinase A [1]; 14 nM at Aurora kinase A [2].

`O=C(Cc1cc(Nc2ncnc3cc(OCCCN4CCC[C@@H]4COP(=O)(O)O)ccc23)n[nH]1)Nc1cccc(F)c1F`: the solubility in [6] was 25 mg/mL (≈ 40.5 mM).

In the case of `CCCN(CCCOc1cc2ncnc(Nc3cc(CC(=O)Nc4cccc(F)c4F)[nH]n3)c2cc1OC)CCOP(=O)(O)O`, the solubility in series [6] was 25 mg/mL (≈ 38.5 mM).

For the molecule `COc1cc2c(Nc3cc(CC(=O)Nc4cccc(F)c4F)[nH]n3)ncnc2cc1OCCCN(CCO)CC(C)C`, the figures for the Ki on Aurora kinase A [1], on SW-620 and at Aurora kinase B were 18 nM, less than 1 nM and less than 1 nM, respectively. Also, the logD in “physchem” is 3.6. Moreover, half-maximal inhibition in series [7] (IC50) was put at 400 nM.

In the case of `COc1cc2c(Nc3cc(CC(=O)Nc4cccc(F)c4F)[nH]n3)ncnc2cc1OCCCN1CCC[C@H]1CO`, the Ki at Aurora kinase A [1] was 39 nM; at SW-620 it was 45 nM; at Aurora kinase B it was less than 1 nM.

Turning to `COc1cc2c(Nc3cc(CC(=O)Nc4cccc(C(F)(F)F)c4)[nH]n3)ncnc2cc1OCCCN1CCC(CO)CC1`, the Ki at Aurora kinase A [2] is 13 nM; at SW-620, 1800 nM; on Aurora kinase B, 510 nM.

As to `CCCN(CCO)CCCOc1ccc2c(Nc3cc(CC(=O)Nc4cccc(F)c4)[nH]n3)ncnc2c1`, the Ki at Aurora kinase A [1] is 980 nM; on SW-620, 7 nM; at Aurora kinase B it was less than 1 nM.

For the molecule `CCN(CCO)CCCOc1cc2ncnc(Nc3cc(CC(=O)Nc4cccc(F)c4)[nH]n3)c2cc1OC`, the results for the Ki on Aurora kinase A [1], at SW-620 and on Aurora kinase B were 190 nM, 270 nM and 1 nM, respectively. This molecule also yielded a logD in the series “physchem” of 2.1. Also, the fraction unbound in [5] was 0.05.

Consider `CCN(CCO)CCCOc1cc2ncnc(Nc3cc(CC(=O)Nc4cccc(F)c4F)[nH]n3)c2cc1OC`, for which the inhibition constant Ki is 360 nM on Aurora kinase A [1], 45 nM on SW-620 and less than 1 nM at Aurora kinase B. The same molecule yielded a logD in the series “physchem” of 1.9. In addition, the fraction unbound in [5] was 0.17. In series [7], the IC50 – broadly, the midpoint of a concentration-inhibition curve – is more than 10000 nM.

On to `CCCN(CCO)CCCOc1ccc2c(Nc3cc(CC(=O)Nc4cccc(F)c4F)[nH]n3)ncnc2c1`, for which the Ki was 350 nM at Aurora kinase A [1], 2 nM on SW-620 and less than 1 nM at Aurora kinase B.

On SW-620, `COc1cccc(NC(=O)Cc2cc(Nc3ncnc4cc(OCCCN5CCC(CO)CC5)c(OC)cc34)[nH]n2)c1` showed a Ki of 5500 nM.

For the molecule `COc1cc2c(Nc3cc(CC(=O)Nc4cccc(F)c4)[nH]n3)ncnc2cc1OCCCNCCO`, the results for the Ki on Aurora kinase A [1], on SW-620 and at Aurora kinase B were 690 nM, 630 nM and 1 nM, respectively.

Take `COc1cc2c(Nc3cc(CC(=O)Nc4cccc(F)c4F)[nH]n3)ncnc2cc1OCCCN1CCC(CO)CC1`: the affinity at SW-620, expressed as Ki, was 540 nM.

Turning to `O=C(Cc1cc(Nc2ncnc3cc(OCCCN4CCC[C@@H]4CO)ccc23)n[nH]1)Nc1cccc(F)c1`, the Ki was 1400 nM at Aurora kinase A [1], 24 nM on SW-620 and less than 1 nM on Aurora kinase B.

In the case of `COc1cc2c(Nc3cc(CC(=O)Nc4cccc(O)c4)[nH]n3)ncnc2cc1OCCCN1CCC(CO)CC1`, the Ki at Aurora kinase A [1] is 4000 nM; on Aurora kinase A [2], 140 nM; at SW-620, more than 10000 nM.

For `CCN(CCCOc1ccc2c(Nc3cc(CC(=O)Nc4cccc(F)c4)n[nH]3)ncnc2c1)CCOP(=O)(O)O` [BARASERTIB], the solubility in series [6] stood at 25 mg/mL (≈ 42.5 mM).

As to `COc1cc2c(Nc3cc(CC(=O)Nc4cccc(C#N)c4)[nH]n3)ncnc2cc1OCCCN1CCC(CO)CC1`, the Ki was 2600 nM at Aurora kinase A [1], 83 nM at Aurora kinase A [2] and more than 10000 nM on SW-620.

Regarding `COc1cc2c(Nc3cc(CC(=O)Nc4cccc(F)c4)[nH]n3)ncnc2cc1OCCCN(C)CCO`, the results for the Ki on Aurora kinase A [1], at SW-620 and at Aurora kinase B were 65 nM, 120 nM and less than 1 nM, respectively.

Turning to `COc1cc2c(Nc3cc(CC(=O)Nc4ccc(F)cc4)[nH]n3)ncnc2cc1OCCCN1CCC(CO)CC1`, the inhibition constant Ki was determined as 2000 nM on Aurora kinase A [1], 30 nM on Aurora kinase A [2] and 2600 nM at SW-620.

Turning to `COc1cc2c(Nc3cc(CC(=O)Nc4cccc(Cl)c4)[nH]n3)ncnc2cc1OCCCN1CCC(CO)CC1`, the Ki at Aurora kinase A [1] was 450 nM; on Aurora kinase A [2], 8 nM; at SW-620, 1200 nM.

`COc1cc2c(Nc3cc(CC(=O)Nc4cccc(F)c4F)[nH]n3)ncnc2cc1OCCCN1CCC(O)CC1`: the Ki was 220 nM on Aurora kinase A [1], 78 nM at SW-620 and less than 1 nM at Aurora kinase B.

Turning to `COc1cc2c(Nc3cc(CC(=O)Nc4cccc(F)c4)[nH]n3)ncnc2cc1OCCCN1CCC[C@@H]1CO`, the Ki on Aurora kinase A [1] stood at 110 nM; on SW-620 it was 330 nM; on Aurora kinase B it was 1 nM. In addition, the fraction unbound in [5] was 0.05.

On to `COc1cc2c(Nc3ncc(CC(=O)Nc4cccc(F)c4)s3)ncnc2cc1OCCCN1CCC(CO)CC1`, for which the fraction unbound in series [5] is 0.02. Also, at SW-620, the inhibition constant Ki came out at 5 nM.

On to `O=C(Cc1cc(Nc2ncnc3cc(OCCCN4CCC[C@@H]4CO)ccc23)n[nH]1)Nc1cccc(F)c1F`, for which the AB in series [4] came out at 89%. For the same molecule, the figures for the Ki at Aurora kinase A [1], on SW-620 and on Aurora kinase B were 950 nM, 5 nM and less than 1 nM, respectively. Moreover, the logD in “physchem” came to 2.1. For the same molecule, the clearance in “in vivo” was 15 mL/min/kg.

In the case of `COc1cc2c(Nc3cc(CC(=O)Nc4cccc(F)c4F)[nH]n3)ncnc2cc1OCCCN1CCC[C@@H]1COP(=O)(O)O`, the solubility in [6] was determined as 25 mg/mL (≈ 38.6 mM).
